Data taken from PubChem BioAssay (NCI).
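How tested: cells in 96-well plates exposed to compound for 48 hours at five concentrations. Abbreviation: GI50, concentration required for 50% inhibition of growth. TGI: total growth inhibition.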

Tests used:
Assay in all cases: NCI anticancer screen, dose series, 48 h
[1] = tested on: HOP-92 NSCLC
[2] = tested on: IGROV1 ovarian
[3] = tested on: BT-549 breast
[4] = tested on: SF-268 CNS
[5] = tested on: A498 renal
[6] = tested on: SK-MEL-2 melanoma
[7] = tested on: U251 CNS
[8] = tested on: CAKI-1 renal
[9] = tested on: HCC-2998 colon
[10] = tested on: MCF7 breast

Structure (SMILES)	GI50 [1] [nM]	TGI [1] [µM]	GI50 [2] [µM]	TGI [2] [µM]	GI50 [3] [µM]	TGI [3] [µM]	GI50 [4] [µM]	TGI [4] [µM]	GI50 [5] [µM]	TGI [5] [µM]	GI50 [6] [µM]	TGI [6] [µM]	GI50 [7] [nM]	TGI [7] [µM]	GI50 [8] [nM]	TGI [8] [µM]	GI50 [9] [µM]	TGI [9] [µM]	GI50 [10] [nM]	TGI [10] [µM]
COc1ccccc1NC(=O)c1cc2cc(Br)ccc2cc1O	1340	4.78	1.6	6.56	2.15	6.12	3.21	16.2	2.96	11	2.03	5.51	2650	9.58	1420	4.69	3.21	11.8	1760	9.3
CC(C)(C)[Si](C)(C)OC1[C@@H](O[Si](C)(C)C(C)(C)C)[C@@H](CNC(=O)NC(=O)C(F)(F)F)O[C@H]1n1cnc2c(NC(=O)Nc3ccccc3)ncnc21 (some centres not stated)	5200	11.8	8.32	17.4	6.81	13.4	6.22	13.4	6.34	13	9.37	17.3	7400	14.5	8240	17	4.28	10.6	2050	8.07
O=C(Nc1nn2c(-c3cc(C(F)(F)F)cc(C(F)(F)F)c3)nnc2s1)C1CCCC1	197	0.876	0.553	> 100	0.796	> 74.7	1.08	> 100	0.255	2.92	0.529	2.4	854	> 100	311	> 65.2	0.685	> 100	512	> 33.7
COC(=O)c1cc2oc(/C=C3/SC(=S)N(NC(C)=O)C3=O)cc2n1C	19600	44.5	23.3	> 100	6.13	22.7	28.4	> 100	10.8	28.1	23.9	> 100	16000	45	10000	36.9	12	29.5	11600	> 100
Fc1cc(-c2nnc3n2N=C(c2ccc(Cl)cc2)CS3)c(Cl)cc1Cl	13700	36.1	4.25	> 37.6	3.27	8.66	13.9	33.1	21	42.4	27	> 57.8	11400	28.4	4610	17.4	15.9	31.1	4560	17.9
CCCCCCCCCCSC(=N)N (tested in a mixture with another compound)	2660	8.83	5.2	18.9	6.65	25.9	4.01	17.6	6.55	19.7			1770	3.62	2030	5.04	1.6	3.05	2750	10.4
Cc1ccc(NC2=C3CCCCC3OC2=O)cc1 (configuration not stated)			54.3	> 100	> 100	> 100	> 100	> 100	65.9	> 100					49500	> 100	> 100	> 100	20500	> 100
COc1ccc(CN2C(=O)C(Cl)=C(Nc3cccc(C(F)(F)F)c3)C2=O)cc1	885	27			1.58	14.8	3.67	16.6	2.61	9.02	12.3	27.3	2750	17	5160	24.4	8.46	25.9	2700	17.2
O=C(Nc1cccc(C(F)(F)F)c1)Nc1cccc(C(F)(F)F)c1	786	6.08	0.868	10.3	2.29	6.44	2.1	10.9			1.84	4.73	509	3.14	1810	11.2	1.51	6.5	852	10
CN(C)CC(O)c1ccc(/C=C/c2ccc(Cl)cc2)cc1 (configuration not stated)	1260	3.13	1.21	2.64			1.49	2.88	1.37	2.66			1530	2.86	706	2.05	1.54	2.97	1630	3.19
CN(C)C(=S)/N=c1\ssc(=S)n1C1CCCCC1		96.6		> 100				> 100		> 100		> 100		37.9		90.6		> 100		
NC(N)=NS(=O)(=O)c1ccc(N=Nc2c(O)c(C(=O)O)cc3ccccc23)cc1		> 100		> 100		> 100		> 100				> 100		> 100		> 100		> 100		> 100
N#CC(C(=O)CCC(=O)Nc1ccc(Cl)c(Cl)c1)c1ccccc1 (configuration not stated)		> 100		> 100				> 100		> 100		> 100		> 100		> 100		> 100		
O=S1C(=c2ccc(=C3Sc4ccccc4S3)cc2)Sc2ccccc21 (configuration not stated)		> 100		> 95.5				37.3		30.2		50.6		28.2		> 91.1		30.3		
CC(=O)OC1(C)N=NC2(CCCCC2)O1 (configuration not stated)		> 100		> 100		> 100		> 100		> 100		> 100		> 100		> 100				> 100
CN(C)c1ccc(/C=N/NC(=S)Nc2ccccc2)cc1		> 100		> 100		> 100		> 100		> 100		> 100		> 100		> 100				> 100
CC#Cc1ccc(-c2ccccc2)s1		> 100		> 100				> 100		> 100		> 100		> 100		> 100				> 100
O=C1OCC2=C1C(c1cccc(Br)c1)c1cc3c(cc1N2CCO)OCCO3 (configuration not stated)			0.117	> 43.8	0.136	6.35	0.0766	8.38	0.0167	0.466	0.0426	1.29	59.6	6.07	52.2	7.54	0.0927	1.71	103	> 50
C/C=C/[C@@H]1O[C@@H]2COC(=O)C2=C[C@@H]1O	747	9.35	18.6	> 84	3.59	15.2	24.2	63.9			33.1	> 79.7	18900	38.3	2140	5.03	24.1	48.8	33500	> 100
C[C@@H]1CC[C@H]2C(C)(C)[C@H]3C[C@@]12CC[C@@]3(C)O		> 100		> 100		> 100		> 100		> 100		> 100				> 100		> 100		> 100
CC(=O)OCc1ccc2c(c1)C(O)NC(=O)O2 (configuration not stated)		> 100		> 100		> 100		> 100				> 100		> 100		> 100				> 100
CN(C)CC1CCCC/C1=N/O (configuration not stated)		> 100		> 100				> 100		> 100		> 100		> 100		> 100		> 100		
CCC(C)SC1SCC2C(=O)N(C)C3(CC3C)C(=O)OCC(NC(=O)c3nc4ccccc4cc3O)C(=O)NC(C)C(=O)N(C)C1C(=O)N(C)C1(CC1C)C(=O)OCC(NC(=O)c1nc3ccccc3cc1O)C(=O)NC(C)C(=O)N2C (configuration not stated)		0.000585		3.54		0.000693		0.00516		0.000492		0.000304		0.0172	0.087			0.000369		
CN(C)CC1CCC/C1=N/OC(=O)c1ccccc1 (configuration not stated)		> 100		> 100				> 100		> 100		> 100		> 100		> 100		> 100		
N#CCCC[Si]12OCCN(CCO1)CCO2		> 100		> 100				> 100		> 100		> 100		> 100		> 100		> 100		
Cc1nnc2ccnn2c1C	> 100000	> 100	> 100	> 100	> 100	> 100	> 100	> 100			> 100	> 100	> 100000	> 100	> 100000	> 100	18.1	33.1	> 100000	> 100
